How the values were obtained:
Candida albicans = assay: Microbial growth inhibition, room temperature storage (20°-25° C.); type: cell-based; settings: room temperature 20°-25° C.; for % Change: vs theoretical 0 hr count
Description: (§1) Amifostine was studied for its ability to inhibit microbial growth. Clear 10 cc vials, stoppers and seals were sterilized for use in the study. Two separate procedures were performed: a refrigerated storage study (2° to 8° C.) and a room temperature storage study (20° to 25° C.). For each test portion, positive controls were prepared for each organism by placing 9.5 mL sterile 0.9% sodium chloride into separate sterile vials and inoculating each with 10^3 to 10^4 of one of the test organisms. In addition, amifostine test specimens were prepared for each test portion by reconstituting six Ethyol® vials with 0.9% sodium chloride, the contents of each of these vials were then transferred to clear sterile vials to allow for easier visual examination. One vial was designated as a negative control, and each of the remaining five vials was inoculated with 10^3 to 10^4 of one of the test organisms. All vials were protected from light throughout the test to simulate the amber Ethyol® vial.
(§2) Positive controls, product test specimens, and a negative control were prepared. At this time, population counts were performed on each positive control. Population counts were also performed on positive controls and product test specimens at 24 and 48 hours. These samples were diluted with sterile water and plated in duplicate with a target of 30 to 300 colonies per plate. Candida albicans, Escherichia coli, Pseudomonas aeruginosa, and Staphylococcus aureus were overpoured with TSA agar and incubated at 30-35° C. for 48 hours. Aspergillus niger was overpoured with Sabouraud agar and incubated at 20-25° C. for 48 hours.

Escherichia coli = assay: as above; type: cell-based; settings: E. coli, room temperature 20°-25° C.; for % Change: vs theoretical 0 hr count
Description: as §1, §2

Pseudomonas aeruginosa = assay: as above; type: cell-based; settings: P. aeruginosa, room temperature 20°-25° C.; for % Change: vs theoretical 0 hr count
Description: as §1, §2

Staphylococcus aureus = assay: as above; type: cell-based; settings: S. aureus, room temperature 20°-25° C.; for % Change: vs theoretical 0 hr count
Description: as §1, §2

small intestine of rats = settings: 150 mg/mL in pH 9 Tris buffer, intralumenal; cited from earlier work

Q: For `NCCCNCCSP(=O)(O)O` [amifostine, S-2-(3-aminopropylamino)ethyl dihydrogen phosphorothioate], which “CFU/mL in Amifostine” value (Candida albicans; 24 hr) is on record?
A: 1.43 × 10^4 CFU/mL

Q: What about the “% Change” value (Candida albicans; 24 hr) of the same molecule?
A: −13.8%

Q: And the “CFU/mL in Amifostine” value (Candida albicans; 48 hr)?
A: 1.00 × 10^4 CFU/mL

Q: What about the “% Change” value (Candida albicans; 48 hr) of the same molecule?
A: −39.8%

Q: And the “CFU/mL in Amifostine” value (Escherichia coli; 24 hr)?
A: 2.28 × 10^3 CFU/mL

Q: What about the “% Change” value (Escherichia coli; 24 hr) of the same molecule?
A: −91.8%

Q: What about the “CFU/mL in Amifostine” value (Escherichia coli; 48 hr) of the same molecule?
A: 8.55 × 10^2 CFU/mL

Q: And the “% Change” value (Escherichia coli; 48 hr)?
A: −96.9%

Q: What about the “CFU/mL in Amifostine” value (Pseudomonas aeruginosa; 24 hr) of the same molecule?
A: 5.22 × 10^2 CFU/mL

Q: What about the “% Change” value (Pseudomonas aeruginosa; 24 hr) of the same molecule?
A: −80.0%

Q: And the “CFU/mL in Amifostine” value (Pseudomonas aeruginosa; 48 hr)?
A: 0 CFU/mL

Q: What about the “% Change” value (Pseudomonas aeruginosa; 48 hr) of the same molecule?
A: −100%

Q: And the “CFU/mL in Amifostine” value (Staphylococcus aureus; 24 hr)?
A: 9.60 × 10^4 CFU/mL

Q: What about the “% Change” value (Staphylococcus aureus; 24 hr) of the same molecule?
A: −4.0%

Q: And the “CFU/mL in Amifostine” value (Staphylococcus aureus; 48 hr)?
A: 3.32 × 10^2 CFU/mL

Q: And the “% Change” value (Staphylococcus aureus; 48 hr)?
A: −99.7%

Q: What about the “radioprotection against intestinal mucositis” value (small intestine of rats) of the same molecule?
A: effective radioprotector
